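Method: 48-hour compound exposure of cells in 96-well plates, five concentrations, linear interpolation of endpoints. Abbreviation: GI50, concentration required for 50% inhibition of growth.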 Active and inactive are the calls of the source. Cut-off read from the data, not from the text of the source: active = GI50 up to about 1.1 µM and inactive = higher. Bounds are passed on as bounds.

Common to all, as to assay: NCI tumour cell line growth inhibition, 48 h
In test [1] the test system is HT-29.
Test [2] concerns EKVX.
Test [3] deals with OVCAR-8.
Test [4] concerns SF-539.
The test system of test [5] is SNB-75.
For test [6], the system named is NCI-H522.
In test [7] the test system is M14.
Test [8] deals with A549.
Test [9] deals with MDA-MB-435.
The test system of test [10] is HCT-15.
Test [11] deals with IGROV-1.
Test [12] has as its system DU-145.
Test [13] deals with NCI-H460.
Test [14] relates to PC-3.
Test [15] has as its system ACHN.
For test [16], the system named is NCI-H23.
Test [17] concerns RPMI-8226.
The subject of test [18] is SK-MEL-5.
Test [19] concerns OVCAR-3.

Take `COc1cc2c(c(OC)c1OC)-c1ccc(SC)c(=O)cc1[C@@H](O)CC2`: the GI50 in test [1] was 0.000294 µM (active); in [2] it was 0.000748 µM (active); in test [3] it was 0.00107 µM (active); in test [4], 0.000356 µM (active); in test [5], 0.01 µM (active); in test [6], 0.00065 µM (active). In addition, the GI50 in test [7] was 0.000333 µM (active); in test [8] it was 0.000895 µM (active); in test [9], 0.000122 µM (active); in test [10], 0.000605 µM; in test [11], 0.00067 µM (active); in test [12], 0.000665 µM (active). Further, the GI50 in test [13] is 0.000586 µM (active); in test [14], 0.000353 µM (active); in test [15], 0.0011 µM (active); in test [16], 0.000803 µM (active).
For `CCOC(=O)/C(=N\OC)C(O)C(F)(F)F` (stereo not given), the GI50 in test [17], in [1], in test [2], in test [3], in test [4] and in test [5] was > 100 µM (inactive) throughout. For the same compound, the GI50 was > 100 µM (inactive) in [6]; > 100 µM (inactive) in test [7]; > 100 µM (inactive) in test [8]; > 100 µM (inactive) in [9]; more than 100 µM in [10]; > 100 µM (inactive) in test [11]. Further, the GI50 in test [12], in test [18], in test [14], in test [15] and in test [16] was > 100 µM (inactive) each time.
In the case of `CCOC(=O)c1c(SCc2cc(=O)[nH]c(=O)[nH]2)n(-c2ccccc2)c(=S)n(-c2ccccc2)c1=O`, the GI50 in test [17], in test [19], in test [1], in [2], in test [3] and in test [4] was > 100 µM (inactive) each time. The GI50 in test [5] was > 100 µM (inactive); in test [7], > 100 µM (inactive); in [8], > 100 µM (inactive); in test [9] it was > 100 µM (inactive); in test [10], more than 100 µM; in test [11], > 100 µM (inactive). The GI50 in test [12], in test [18], in test [13], in [14] and in test [15] was > 100 µM (inactive) throughout.
For the compound `O=C1N/C(=N\C2CCCCC2)C2(CCN(CCCC3(c4ccc(F)cc4)OCCO3)CC2)N1c1ccccc1`, the GI50 was 23 µM (inactive) in [17]; 11.8 µM (inactive) in test [19]; 16.6 µM (inactive) in test [1]; 16.8 µM (inactive) in test [2]; 24.8 µM (inactive) in test [3]; 17 µM (inactive) in [4]. Besides, the GI50 in [5] was 14.3 µM (inactive); in test [6] it was 14.9 µM (inactive); in test [7], 19.4 µM (inactive); in test [8] it was 21.4 µM (inactive); in test [9], 19.1 µM (inactive); in test [10], 18.1 µM. Further, the GI50 is 17 µM (inactive) in [12]; 15 µM (inactive) in [18]; 19.3 µM (inactive) in test [14]; 14.8 µM (inactive) in test [15]; 17.9 µM (inactive) in test [16].
Turning to `Oc1ccc(-c2nc3ccc(Cl)cc3s2)cc1`, the GI50 in test [17] is 20.1 µM (inactive); in test [19], 23.5 µM (inactive); in test [1], 18.4 µM (inactive); in test [2], 16.2 µM (inactive); in [3], 19.3 µM (inactive); in test [4], 16.2 µM (inactive). Moreover, the GI50 was 16.3 µM (inactive) in test [6]; > 100 µM (inactive) in test [7]; 20.8 µM (inactive) in test [8]; 18.5 µM (inactive) in test [9]; 15.7 µM in test [10]; 16.5 µM (inactive) in [11]. Also, the GI50 was 17.3 µM (inactive) in test [12]; 18.2 µM (inactive) in [18]; 18.8 µM (inactive) in test [13]; 20.4 µM (inactive) in test [14]; 76.7 µM (inactive) in test [15]; 18.3 µM (inactive) in test [16].

The values above are taken from ChEMBL document CHEMBL1201862, “PubChem BioAssay data set” (2004).
